# According to patent US20170210751A1, “PRMT5 INHIBITORS AND USES THEREOF” (Epizyme, Inc., priority 2014, published 2017):
# Target: T1, PRMT5/MEP50 (Homo sapiens, UniProt O14744)
# T1 construct: Flag-PRMT5; made in house; host or cells: Spodoptera frugiperda (SF9) insect cells, baculovirus (pDEST8)
# Assay: PRMT5 Biochemical Assay (PRMT5/MEP50 enzyme assay on peptide substrate, 3H-SAM Flashplate)
# Conditions: PRMT5/MEP50 4 nM, 3H-SAM 75 nM, peptide 40 nM, 30 min preincubation at 25 degrees Celsius
# Summary of the method: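 FLAG-PRMT5/His-MEP50 from Sf9 cells (4 nM) preincubated 30 min at 25 °C with compounds, then reacted with 75 nM 3H-SAM and 40 nM biotinylated histone H4 1-15 peptide in Bicine pH 7.6, 1% DMSO. Stopped with 600 uM cold SAM; streptavidin Flashplate capture, scintillation counts; % inhibition fitted to 3- or 4-parameter curve.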
# T1 sequence (O14744 with tags, fused parts or gaps): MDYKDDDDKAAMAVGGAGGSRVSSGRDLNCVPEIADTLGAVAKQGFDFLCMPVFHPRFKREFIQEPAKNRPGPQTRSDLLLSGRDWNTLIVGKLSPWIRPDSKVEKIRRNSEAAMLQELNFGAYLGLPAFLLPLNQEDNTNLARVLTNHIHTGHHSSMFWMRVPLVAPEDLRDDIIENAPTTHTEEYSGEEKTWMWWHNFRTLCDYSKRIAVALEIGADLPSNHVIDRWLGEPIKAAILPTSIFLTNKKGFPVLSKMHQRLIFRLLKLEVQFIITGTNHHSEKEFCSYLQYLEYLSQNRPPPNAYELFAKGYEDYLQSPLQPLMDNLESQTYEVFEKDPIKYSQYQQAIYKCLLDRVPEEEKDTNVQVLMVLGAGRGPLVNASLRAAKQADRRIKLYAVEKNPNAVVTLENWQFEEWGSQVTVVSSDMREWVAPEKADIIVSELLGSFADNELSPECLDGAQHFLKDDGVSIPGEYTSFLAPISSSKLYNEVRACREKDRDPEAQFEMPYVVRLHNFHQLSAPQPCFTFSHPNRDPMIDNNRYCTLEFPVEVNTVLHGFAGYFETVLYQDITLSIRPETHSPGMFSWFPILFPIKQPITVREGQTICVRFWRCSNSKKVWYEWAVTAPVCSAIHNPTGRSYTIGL
# T1 sequence (Q9BQA1 with tags, fused parts or gaps partner limits assumed): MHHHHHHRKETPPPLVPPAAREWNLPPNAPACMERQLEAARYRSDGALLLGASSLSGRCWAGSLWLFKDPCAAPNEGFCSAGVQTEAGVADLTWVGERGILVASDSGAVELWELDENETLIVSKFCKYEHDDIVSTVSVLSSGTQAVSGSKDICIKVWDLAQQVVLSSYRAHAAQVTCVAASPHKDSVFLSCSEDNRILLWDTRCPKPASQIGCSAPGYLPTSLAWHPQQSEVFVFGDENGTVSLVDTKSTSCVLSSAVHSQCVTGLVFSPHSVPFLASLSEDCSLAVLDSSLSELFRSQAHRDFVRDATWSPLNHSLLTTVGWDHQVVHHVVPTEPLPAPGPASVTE
row,SMILES,IC50 [nM]
1,"Nc1nc2c(s1)CCN(C[C@@H](O)CNC(=O)c1cc(NC3COC3)ncn1)C2 [Compound 1-20, (S)—N-(3-(2-amino-6,7-dihydrothiazolo[4,5-c]pyridin-5(4H)-yl)-2-hydroxypropyl)-6-(oxetan-3-ylamino)pyrimidine-4-carboxamide]",> 10000
2,"CC(=O)N1CC(Nc2cc(C(=O)NC[C@H](O)CN3CCc4scc(C)c4C3)ncn2)C1 [Compound 1-12, (S)-6-((1-acetylazetidin-3-yl)amino)-N-(2-hydroxy-3-(3-methyl-6,7-dihydrothieno[3,2-c]pyridin-5(4H)-yl)propyl)pyrimidine-4-carboxamide]",< 100
3,"CC(=O)N1CCC(Nc2cc(C(=O)NC[C@H](O)CN3CCc4[nH]nc(-c5ccccc5)c4C3)ncn2)CC1 [Compound 3-12, (S)-6-((1-acetylpiperidin-4-yl)amino)-N-(2-hydroxy-3-(3-phenyl-6,7-dihydro-1H-pyrazolo[4,3-c]pyridin-5(4H)-yl)propyl)pyrimidine-4-carboxamide]",> 10000
4,"O=C(NC[C@H](O)CN1CCc2ncccc2C1)c1cc(NC2COC2)ncn1 [Compound 2-12, (S)—N-(3-(7,8-dihydro-1,6-naphthyridin-6(5H)-yl)-2-hydroxypropyl)-6-(oxetan-3-ylamino)pyrimidine-4-carboxamide]",101 to 1000
5,"O=C(COc1cccc2cccnc12)NCC(O)CN1CCc2ccncc2C1 (centres unmarked) [Compound 2-8, N-[2-hydroxy-3-(1,2,3,4-tetrahydro-2,7-naphthyridin-2-yl)propyl]-2-(quinolin-8-yloxy)acetamide]",1000 to 10000
6,"Cc1csc2c1CN(C[C@@H](O)CNC(=O)c1cc(NC3COC3)ncn1)CC2 [Compound 1-11, (S)—N-(2-hydroxy-3-(3-methyl-6,7-dihydrothieno[3,2-c]pyridin-5(4H)-yl)propyl)-6-(oxetan-3-ylamino)pyrimidine-4-carboxamide]",101 to 1000
7,"CC(=O)N1CCC(Nc2cc(C(=O)NC[C@H](O)CN3CCc4c(ncn4C)C3)ccn2)CC1 [Compound 3-22, (S)-2-((1-acetylpiperidin-4-yl)amino)-N-(2-hydroxy-3-(1-methyl-6,7-dihydro-1H-imidazo[4,5-c]pyridin-5(4H)-yl)propyl)isonicotinamide]",> 10000
8,"O=C(COc1cccc2cccnc12)NCC(O)CN1CCc2sccc2C1 (centres unmarked) [Compound 1-4, N-(2-hydroxy-3-{4H,5H,6H,7H-thieno[3,2-c]pyridin-5-yl}propyl)-2-(quinolin-8-yloxy)acetamide]",< 100
9,Cn1cnc2c1CCN(C[C@@H](O)CNC(=O)c1cc(NC3COC3)ncn1)C2 [Compound 3-28],> 10000
10,CC(=O)N1CC(Nc2cc(C(=O)NC[C@H](O)CN3CCc4sc(C)nc4C3)ncn2)C1 [Compound 1-27],1000 to 10000
11,"O=C(COc1cccc2cccnc12)NCC(O)CN1CCc2cccnc2C1 (centres unmarked) [Compound 2-5, N-[2-hydroxy-3-(5,6,7,8-tetrahydro-1,7-naphthyridin-7-yl)propyl]-2-(quinolin-8-yloxy)acetamide]",1000 to 10000
12,"CC(=O)N1CCC(Nc2cc(C(=O)NC[C@H](O)CN3CCc4ccncc4C3)ccn2)CC1 [Compound 2-19, (S)-2-((1-acetylpiperidin-4-yl)amino)-N-(3-(3,4-dihydro-2,7-naphthyridin-2(1H)-yl)-2-hydroxypropyl)isonicotinamide]",101 to 1000
13,"CC(=O)N1CCC(Nc2cc(C(=O)NC[C@H](O)CN3CCc4cccnc4C3)ccn2)CC1 [Compound 2-21, (S)-2-((1-acetylpiperidin-4-yl)amino)-N-(3-(5,6-dihydro-1,7-naphthyridin-7(8H)-yl)-2-hydroxypropyl)isonicotinamide]",101 to 1000
14,CC(=O)N1CCC(Nc2cc(C(=O)NC[C@H](O)CN3CCc4scnc4C3)ncn2)CC1 [Compound 1-32],1000 to 10000
15,CC(=O)N1CCC(Nc2cc(C(=O)NC[C@H](O)CN3CCc4c(cnn4C)C3)ncn2)CC1 [Compound 3-56],> 10000
16,O=C(NC[C@H](O)CN1CCc2ccncc2C1)c1cc(NC2COC2)ncn1 [Compound 2-24],1000 to 10000
17,CC(=O)N1CC(Nc2cc(C(=O)NC[C@H](O)CN3CCc4[nH]c(C)nc4C3)ncn2)C1 [Compound 3-47],> 10000
18,"O=C(NC[C@H](O)CN1CCc2[nH]nc(-c3ccccc3)c2C1)c1cc(NC2COC2)ncn1 [Compound 3-17, (S)—N-(2-hydroxy-3-(3-phenyl-6,7-dihydro-1H-pyrazolo[4,3-c]pyridin-5(4H)-yl)propyl)-6-(oxetan-3-ylamino)pyrimidine-4-carboxamide]",> 10000
19,"CC(=O)N1CCC(Nc2cc(C(=O)NC[C@H](O)CN3CCc4cccnc4C3)ncn2)CC1 [Compound 2-11, (S)-6-((1-acetylpiperidin-4-yl)amino)-N-(3-(5,6-dihydro-1,7-naphthyridin-7(8H)-yl)-2-hydroxypropyl)pyrimidine-4-carboxamide]",101 to 1000
20,CC(=O)N1CC(Nc2cc(C(=O)NC[C@H](O)CN3CCc4[nH]ncc4C3)ncn2)C1 [Compound 3-23],1000 to 10000
21,"CC(=O)N1CCC(Nc2cc(C(=O)NC[C@H](O)CN3CCc4[nH]cnc4C3)ncn2)CC1 [Compound 3-34, (S)-6-((1-acetylpiperidin-4-yl)amino)-N-(3-(6,7-dihydro-1H-imidazo[4,5-c]pyridin-5(4H)-yl)-2-hydroxypropyl)pyrimidine-4-carboxamide]",> 10000
22,CC(=O)N1CCC(Nc2cc(C(=O)NC[C@H](O)CN3CCc4cn[nH]c4C3)ccn2)CC1 [Compound 3-50],> 10000
23,"Cc1nc2c(o1)CCN(C[C@@H](O)CNC(=O)c1cc(NC3COC3)ncn1)C2 [Compound 4-1, (S)—N-(2-hydroxy-3-(2-methyl-6,7-dihydrooxazolo[4,5-c]pyridin-5(4H)-yl)propyl)-6-(oxetan-3-ylamino)pyrimidine-4-carboxamide]",> 10000
24,"CC(=O)N1CCC(Nc2cc(C(=O)NC[C@H](O)CN3CCc4sccc4C3)ncn2)CC1 [Compound 1-3, (S)-6-((1-acetylpiperidin-4-yl)amino)-N-(3-(6,7-dihydrothieno[3,2-c]pyridin-5(4H)-yl)-2-hydroxypropyl)pyrimidine-4-carboxamide]",< 100
25,"CC(=O)N1CC(Nc2cc(C(=O)NC[C@H](O)CN3CCc4oc(C)nc4C3)ncn2)C1 [Compound 4-2, (S)-6-((1-acetylazetidin-3-yl)amino)-N-(2-hydroxy-3-(2-methyl-6,7-dihydrooxazolo[4,5-c]pyridin-5(4H)-yl)propyl)pyrimidine-4-carboxamide]",> 10000
26,"CC(=O)N1CC(Nc2cc(C(=O)NC[C@H](O)CN3CCc4sccc4C3)ncn2)C1 [Compound 1-2, (S)-6-((1-acetylazetidin-3-yl)amino)-N-(3-(6,7-dihydrothieno[3,2-c]pyridin-5(4H)-yl)-2-hydroxypropyl)pyrimidine-4-carboxamide]",< 100
27,CC(=O)N1CCC(Nc2cc(C(=O)NC[C@H](O)CN3CCc4scnc4C3)ccn2)CC1 [Compound 1-30],1000 to 10000
28,"O=C(NC[C@H](O)CN1CCc2sccc2C1)c1cc(NC2COC2)ncn1 [Compound 1-1, (S)—N-(3-(6,7-dihydrothieno[3,2-c]pyridin-5(4H)-yl)-2-hydroxypropyl)-6-(oxetan-3-ylamino)pyrimidine-4-carboxamide]",< 100
29,Cn1cc2c(n1)CCN(C[C@@H](O)CNC(=O)c1cc(NC3COC3)ncn1)C2 [Compound 3-27],> 10000
